The text below walks through data of ChEMBL document CHEMBL5257159, “Insights into targeting SARS-CoV-2: design, synthesis, in silico studies and antiviral evaluation of new dimethylxanthine derivatives” (RSC Med Chem, 2023).

Experiment [1] relates to NCI-H522. As to the kind of experiment: Cytotoxicity against human NCI-H522 cells assessed as inhibition of cell growth incubated for 48 hrs by SRB assay. Format: functional, cell-based.
For experiment [2], the system named is CAKI-1. Briefly: Cytotoxicity against human CAKI-1 cells assessed as inhibition of cell growth incubated for 48 hrs by SRB assay. Format: functional, cell-based.
Experiment [3] deals with SR. Briefly: Cytotoxicity against human SR cells assessed as inhibition of cell growth incubated for 48 hrs by SRB assay. The class given is functional, cell-based.
Experiment [4] addresses T1, Replicase polyprotein 1ab (Severe acute respiratory syndrome coronavirus 2, UniProt P0DTD1). As to the kind of experiment: Inhibition of SARS-CoV-2 RdRP using ATP substrate preincubated with compound for 30 mins followed by substrate addition and measured after 30 mins by Alphascreen microplate reader analysis.
Experiment [5] has as its system SK-MEL-5. Briefly: Cytotoxicity against human SK-MEL-5 cells assessed as inhibition of cell growth incubated for 48 hrs by SRB assay. The class given is functional, cell-based.
The test system of experiment [6] is SF-268. As to the kind of experiment: Cytotoxicity against human SF-268 cells assessed as inhibition of cell growth incubated for 48 hrs by SRB assay. Format: functional, cell-based.
In experiment [7] the test system is NCI-H226. Briefly: Cytotoxicity against human NCI-H226 cells assessed as inhibition of cell growth incubated for 48 hrs by SRB assay. The class given is functional, cell-based.
Experiment [8] concerns HOP-62. As to the kind of experiment: Cytotoxicity against human HOP-62 cells assessed as inhibition of cell growth incubated for 48 hrs by SRB assay. Format: functional, cell-based.
For experiment [9], the system named is SK-MEL-2. Briefly: Cytotoxicity against human SK-MEL-2 cells assessed as inhibition of cell growth incubated for 48 hrs by SRB assay. Format: functional, cell-based.
Experiment [10] has as its system UO-31. As to the kind of experiment: Growth inhibition of human UO-31 cells incubated for 48 hrs by SRB assay relative to control. Format: functional.
In experiment [11] the target is T1, Replicase polyprotein 1ab. As to the kind of experiment: Inhibition of MBP tagged recombinant SARS-CoV-2 main protease using DABCYL-KTSAVLeu(13C6,15N)-Q as substrate incubated for 2 to 3 hrs by mass spectrometric analysis.
The test system of experiment [12] is T47D. As to the kind of experiment: Cytotoxicity against human T47D cells assessed as inhibition of cell growth incubated for 48 hrs by SRB assay. The class given is functional, cell-based.
The test system of experiment [13] is MDA-MB-435. Briefly: Cytotoxicity against human MDA-MB-435 cells assessed as inhibition of cell growth incubated for 48 hrs by SRB assay. The class given is functional, cell-based.
Experiment [14] deals with SF-295. Briefly: Cytotoxicity against human SF-295 cells assessed as inhibition of cell growth incubated for 48 hrs by SRB assay. The class given is functional, cell-based.
Experiment [15] relates to SF-539. Briefly: Cytotoxicity against human SF-539 cells assessed as inhibition of cell growth incubated for 48 hrs by SRB assay. Format: functional, cell-based.
Experiment [16] deals with OVCAR-4. Briefly: Cytotoxicity against human OVCAR-4 cells assessed as inhibition of cell growth incubated for 48 hrs by SRB assay. Format: functional, cell-based.
The subject of experiment [17] is SNB-75. Briefly: Cytotoxicity against human SNB-75 cells assessed as inhibition of cell growth incubated for 48 hrs by SRB assay. The class given is functional, cell-based.
Experiment [18] concerns UO-31. As to the kind of experiment: Cytotoxicity against human UO-31 cells assessed as inhibition of cell growth incubated for 48 hrs by SRB assay. The class given is functional, cell-based.
Experiment [19] concerns HOP-62. Briefly: Growth inhibition of human HOP-62 cells incubated for 48 hrs by SRB assay relative to control. Format: functional.

Active and inactive are the calls of the source. No cut-off for these calls is given here.

As for `Cn1cnc2c1c(=O)n(CC(=O)Nc1ccc(S(=O)(=O)Nc3ncccn3)cc1)c(=O)n2C`, the outcome in [1], in [2], in experiment [3], in experiment [5], in [6] and in experiment [7] was inactive. The result in [8], in experiment [9], in experiment [12], in experiment [13], in [14] and in experiment [15] was inactive. Also, the outcome in experiment [16] and in experiment [17] was inactive. In addition, the figures for the IC50 in [4] and in [11] were 3.22 µM and 8.06 µM, respectively. For the same compound, the “growth inhibition (GI)” value in experiment [10] was 17.55%.

`Cn1c(=O)c2c(ncn2CCC(=O)Nc2ccc(S(=O)(=O)Nc3ncccn3)cc2)n(C)c1=O`: the outcome in experiment [1], in experiment [2], in [3], in experiment [18], in experiment [5] and in experiment [6] was inactive. For the same compound, the outcome in [7], in experiment [9], in [12], in experiment [13], in [14] and in experiment [15] was inactive. Moreover, the outcome in experiment [16] and in [17] was inactive. In addition, in [19], the “growth inhibition (GI)” value was 16.12%.
